{
  "source": "patent US20070004691A1",
  "about": "“Antitumoral combinations containing et-743 and a cruciferous and a cruciferous indole compound” (priority 2003, published 2007)",
  "key": {"[1]": {"tested_on": "human tumour xenografts grown in athymic mice", "conditions": "including melanoma and ovarian and breast carcinoma; cited from earlier work"}, "patients": {"tested_on": "patients", "conditions": "prolonged infusion over 24-72 hr; cited from earlier work"}, "[2]": {"tested_on": "mice, rats, dogs and monkeys", "conditions": "plasma liver-specific enzymes, cholangitis; cited from earlier work"}, "female Wistar rats": {"tested_on": "female Wistar rats", "assay": "Study of hepatotoxicity: protection against ET-743-induced liver damage", "assay_type": "in vivo, rat", "method": "I3C at 0.1 or 0.5% or di-indolyl methane (DIM) at 0.2% were added to the diet of female Wistar rats (230-260 g) seven days prior to treatment with a hepatotoxic dose of ET-743 (40 μg/kg, iv. via the lateral tail vein). This amount constitutes doses equivalent to approximately 80 and 400 mg/kg I3C per day. Control animals received the unaltered diet and/or water as the vehicle for ET-743. The dose of DIM was based on the following consideration: DIM is the product of the condensation of two molecules of I3C, therefore assuming all of the I3C in the 0.5% dose group dimerises to form DIM, the maximal amount of DIM which could theoretically be generated is half of the amount of I3C in the diet. Each treatment group comprised 4 animals. Hepatic changes were studied by assessment of alterations in plasma levels of bilirubin and liver enzymes ALP and aspartate aminotransferase (AST) and by conventional histopathological investigation of liver tissue."}, "[3]": {"assay": "Study of ET-743 levels in liver and plasma (HPLC-ESI-MS/MS)", "assay_type": "in vivo, rat", "conditions": "for AUC of ET-743 in liver (0-24 h after dosing), mean: rat liver; for AUC of ET-743 in plasma (0-24 h after dosing), mean: rat plasma", "method": "We tested the hypothesis that I3C pretreatment alters clearance of ET-743 from plasma and liver in vivo. Blood samples and liver tissue were collected from rats before and up to 24 h after administration of ET-743 (40 μg/kg iv.) with or without treatment with I3C (0.5% in the diet) given from 6 days prior to ET-743. Blood samples (by cardiac puncture) and liver tissue were collected before and at 0.5, 1, 3, 6, 12 and 24 h post treatment. Blood was placed in heparinized tubes, and plasma was obtained by centrifugation. An aliquot (0.3 ml) was mixed with 0.7 ml ammonium acetate buffer (0.2 M, pH 5.0). Liver tissue was homogenized (1:1) in water. Levels of ET-743 were measured by HPLC coupled to electrospray ionization tandem mass spectrometry in the plasma and liver samples."}, "13762 tumor": {"tested_on": "13762 tumor", "assay": "Study of antitumor activity: 13762 tumor fragments implanted sc", "assay_type": "in vivo, rat", "conditions": "for tumor weight inhibition (TWI): day 20, I3C 0.5% in diet from implantation, ET-743 40 μg/kg i.v. on day 6, female Fischer rats, weight from caliper diameters; for decrease of terminal tumor weight: tumors excised and weighed at termination of the experiment (day 20), I3C 0.5% diet, ET-743 40 μg/kg i.v.", "method": "(§1) 13762 tumor fragments (100-200 mg weight) were implanted (sc) into the flank of female Fischer rats (100-120 g). […] Properties of the 13762 tumour have previously been described for example in Braunschweiger P. G., and Schiffer L. M. 1980, J. Natl. Cancer Inst., 64: 671-674: “Growth kinetics of mammary tumor 13762 in rats previously cured by chemotherapy”. Tumor weight (TW) was calculated on each day via tumor diameters, using a Vernier caliper and the formula: TW (in mg)=tumor volume (mm3)=d^2×D/2, in which d and D represent the shortest and longest diameter, respectively. Rats (9-10 per group) received I3C in their diet (0.5%) from the day of tumor implantation to the end of the experiment. ET-743 (40 μg/kg, i.v.) was administered on day 6 post tumor implantation."}, "female rat": {"tested_on": "female rat", "conditions": "high-dose dexamethasone pretreatment; cited from earlier work"}, "rat livers": {"tested_on": "rat livers", "assay": "Hepatoprotection by modulators of drug metabolism against ET-743", "conditions": "compared with dexamethasone"}, "female Fischer rats": {"tested_on": "female Fischer rats", "assay": "Protection against pathological manifestations of ET-743 in the liver of tumor-bearing Fischer rats", "assay_type": "in vivo", "conditions": "0.5% dietary I3C, compared with Wistar rat", "method": "as §1"}, "[4]": {"conditions": "ET-743 alone, 40 μg/kg iv, female Wistar rats"}, "[5]": {"conditions": "ET-743 40 μg/kg iv in combination with I3C (0.5% in the diet from 6 days prior)"}, "[6]": {"conditions": "I3C 0.1% in diet plus ET-743 40 μg/kg iv"}},
  "data": [
    {"smiles": "COc1cc2c(cc1O)CCN[C@]21CS[C@@H]2c3c(OC(C)=O)c(C)c4c(c3[C@H](COC1=O)N1C2C2c3c(cc(C)c(OC)c3O)C[C@@H]([C@@H]1O)N2C)OCO4", "note": "(stereo partly shown) [ET-743, Ecteinascidin 743]", "values": [
      {"measurement": "antineoplastic activity", "setting": "[1]", "result": "potent"},
      {"measurement": "side effects in patients", "setting": "patients", "result": "myelotoxic and hepatotoxic"},
      {"measurement": "side effect in preclinical acute toxicity studies", "setting": "[2]", "result": "liver toxicity"},
      {"measurement": "activities of ALP and AST", "setting": "female Wistar rats; [4]", "result": "elevated"},
      {"measurement": "plasma levels of bilirubin", "setting": "female Wistar rats; [4]", "result": "dramatically raised"},
      {"measurement": "liver pathology", "setting": "female Wistar rats; ET-743 alone, 40 μg/kg iv, day 3 and day 9", "result": "severe bile duct damage on day 3 and biliary sclerosis on day 9"},
      {"measurement": "AUC of ET-743 in liver (0-24 h after dosing), mean", "setting": "[3]; [5]", "result": 563, "unit": "ngxh/ml"},
      {"measurement": "AUC of ET-743 in plasma (0-24 h after dosing), mean", "setting": "[3]; [5]", "result": 1.9, "unit": "ngxh/ml"},
      {"measurement": "AUC of ET-743 in liver (0-24 h after dosing), mean", "setting": "[3]; ET-743 alone, 40 μg/kg iv", "result": 280, "unit": "ngxh/ml"},
      {"measurement": "AUC of ET-743 in plasma (0-24 h after dosing), mean", "setting": "[3]; ET-743 alone, 40 μg/kg iv", "result": 4.7, "unit": "ngxh/ml"},
      {"measurement": "tumor weight inhibition (TWI)", "setting": "13762 tumor", "result": 62, "unit": "%"},
      {"measurement": "decrease of terminal tumor weight", "setting": "13762 tumor", "result": 54, "unit": "%"}
    ]},
    {"smiles": "C[C@@H]1C[C@H]2[C@@H]3CCC4=CC(=O)C=C[C@]4(C)[C@@]3(F)[C@@H](O)C[C@]2(C)[C@@]1(O)C(=O)CO", "note": "[dexamethasone]", "values": [
      {"measurement": "hepatic levels of ET-743 after pretreatment", "setting": "female rat", "result": "dramatic reduction"}
    ]},
    {"smiles": "CC(=O)N[C@@H](CS)C(=O)O", "note": "[N-acetylcysteine]", "values": [
      {"measurement": "amelioration of ET-743 mediated hepatotoxicity", "setting": "rat livers", "result": "failed to protect"}
    ]},
    {"smiles": "O=c1cc(-c2ccccc2)oc2ccc3ccccc3c12", "note": "[β-naphthoflavone]", "values": [
      {"measurement": "amelioration of ET-743 mediated hepatotoxicity", "setting": "rat livers", "result": "persisted only for a short term"}
    ]},
    {"smiles": "CCC1(c2ccccc2)C(=O)NC(=O)NC1=O", "note": "[phenobarbitone]", "values": [
      {"measurement": "amelioration of ET-743 mediated hepatotoxicity", "setting": "rat livers", "result": "weak"}
    ]},
    {"smiles": "OCc1c[nH]c2ccccc12", "note": "[I3C, 1H-indole-3-methanol]", "values": [
      {"measurement": "plasma bilirubin levels compared to ET-743 alone", "setting": "female Wistar rats; I3C 0.1% in diet (approx. 80 mg/kg per day) from seven days prior to ET-743 40 μg/kg iv", "result": "moderately reduced"},
      {"measurement": "AST and ALP activity compared with levels induced by ET-743 alone", "setting": "female Wistar rats; [6]", "result": "did not decrease"},
      {"measurement": "pathological manifestations of liver damage compared to ET-743 only", "setting": "female Wistar rats; [6]", "result": "only marginally less severe"},
      {"measurement": "protection as reflected by the biochemical indices", "setting": "female Wistar rats; I3C 0.5% in diet (approx. 400 mg/kg per day) plus ET-743 40 μg/kg iv", "result": "complete"},
      {"measurement": "protection adjudged on the basis of liver pathology", "setting": "female Wistar rats; I3C 0.5% in diet plus ET-743 40 μg/kg iv, 3 and 9 days", "result": "substantial, albeit not complete"},
      {"measurement": "weight of the animals or liver function (biochemical indices or pathology)", "setting": "female Wistar rats; consumption of I3C on its own in the diet", "result": "did not affect"},
      {"measurement": "protection against the pathological manifestations of ET-743 in the liver", "setting": "female Fischer rats", "result": "same degree of protection"},
      {"measurement": "tumor weight inhibition (TWI)", "setting": "13762 tumor", "result": 35, "unit": "%"},
      {"measurement": "decrease of terminal tumor weight", "setting": "13762 tumor", "result": 43, "unit": "%"}
    ]}
  ]
}
